Data taken from patent US20180353460A1, “METHODS OF TREATING UROLOGICAL DISORDERS USING SARMs” (priority 2014, published 2018).
Where two headings read alike, the source gives them in different places.

How the values were obtained:
levator ani muscle [1] = assay: Hershberger assays of compounds H-1 to H-4; assay type: in vivo, rat; conditions: calculated in Win Non-Lin
Procedure: FIG. 3 depicts results of Hershberger assays of compounds of the invention as described in Example 17. AUC is area under the concentration-time curve.
Hershberger assays as described above for Formulas VIII-XIV were also performed on compounds H-1, H-2, H-3, & H-4, as reported in FIG. 3, along with AR binding data in some cases in Table 11. The reported Emax values were calculated in Win Non-Lin®.

levator ani muscle [2] = assay: Levator ani muscle weight in castrated rats treated subcutaneously for 14 days; assay type: in vivo, rat; conditions: castrated Sprague Dawley rats, subcutaneous, 3 mg/day
Excerpt: At sacrifice, organs were weighed and expressed as raw organ weights. Values are expressed as average±S.D. Increased size and strength of pelvic floor muscles is one mechanism by which SARMs are believed to affect UI.
At sacrifice, organs were weighed and expressed as raw organ weights. Values are expressed as average±S.D.

ovariectomized rat model = conditions: cited from earlier work
[3] = test system: women with stress urinary incontinence; conditions: cited from earlier work; for median incontinence episode frequency decreased: placebo 41%
[4] = compared with the vehicle control

C[C@](O)(COc1ccc(F)cc1)C(=O)Nc1ccc([N+](=O)[O-])c(C(F)(F)F)c1 [Compound H-1]
Emax in levator ani muscle (levator ani muscle [1]): 75 ± 4 % of intact control

C[C@](O)(COc1ccc(Cl)cc1)C(=O)Nc1ccc([N+](=O)[O-])c(C(F)(F)F)c1 [Compound H-2]
Emax in levator ani muscle (levator ani muscle [1]): 136 ± 9 % of intact control

C[C@](O)(COc1ccc(I)cc1)C(=O)Nc1ccc([N+](=O)[O-])c(C(F)(F)F)c1 [Compound H-4]
Emax in levator ani muscle (levator ani muscle [1]): 95 ± 7 % of intact control

C[C@]12CCC(=O)C[C@@H]1CC[C@@H]1[C@@H]2CC[C@]2(C)[C@@H](O)CC[C@@H]12 [DHT, dihydrotestosterone, reference compound]
levator ani muscle weight (levator ani muscle [2]): elicits hypertrophy of the levator ani muscle

C[C@H](Nc1ccc(C#N)c(Cl)c1Cl)C(C)(C)O [GSK2849466A]
increase of amplitude of urethral responses during sneezing (AURS) (ovariectomized rat model; [4]): 74% | increase of urethral baseline pressure (UBP) (ovariectomized rat model; [4]): 64% | rats with fluid leakage during sneezing (ovariectomized rat model; vehicle group 8/8): 1/8

CNCC[C@H](Oc1cccc2ccccc12)c1cccs1 [duloxetine]
reduction in incontinence episode frequency ([3]; Dmochowski et al., placebo 27%): 50% | median incontinence episode frequency decreased ([3]; duloxetine 20 mg/day): 54% | median incontinence episode frequency decreased ([3]; duloxetine 40 mg/day): 59% | median incontinence episode frequency decreased ([3]; duloxetine 80 mg/day): 64%
